Read-outs that look alike come from different tables or passages of the source.
Experiments:
[1] = target: T1, Plasmodium falciparum calcium-dependent protein kinase 1 (CDPK1) (Plasmodium falciparum, UniProt P62344); test: CDPK1 Kinase-Glo ATP-consumption screen and dose-response; type: biochemical; conditions: hits below 1 uM; read-out: CDPK1 IC50
T1 construct: 6-Histidine (N); made in house
How it was run: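 Single-point testing used 1 μM final compound, then dose-response, against CDPK4 and CDPK1 with Syntide-2 (40 μM) as substrate. After 90 min, reactions were halted by 5 mM EGTA, and kinase activity was inferred from depleted ATP via Kinase-Glo luminescence.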

PKG = PKG (Plasmodium falciparum, UniProt Q8I719); test: PKG IC50 (supplementary data file); type: biochemical
Source text: Supplement pone.0149996.s003.xls, sheet "combined_1_sorted"

[2] = target: T2, Plasmodium falciparum protein kinase 6 (PK6) (Plasmodium falciparum, UniProt Q8IDW1); test: biochemical; conditions: hits below 1 uM; read-out: PK6 IC50
T2 construct: 6-Histidine (N); made in house
T2 sequence (Q8IDW1 1-305): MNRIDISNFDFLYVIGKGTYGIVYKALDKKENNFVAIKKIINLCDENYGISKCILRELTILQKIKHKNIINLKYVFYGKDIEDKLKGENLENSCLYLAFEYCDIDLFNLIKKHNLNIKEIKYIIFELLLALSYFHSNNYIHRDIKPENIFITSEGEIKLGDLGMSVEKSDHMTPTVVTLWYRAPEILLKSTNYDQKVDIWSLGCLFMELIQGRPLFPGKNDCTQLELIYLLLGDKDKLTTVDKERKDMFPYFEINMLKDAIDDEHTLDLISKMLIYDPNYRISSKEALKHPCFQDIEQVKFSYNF

P. falciparum 3D7 cells = conditions: cited from earlier work
3D7 PFLDH [3] = system: 3D7 PFLDH; design: method as in F.J. Gamo et al., Nature 2010; concentration or dose not given beside the values; conditions: downloaded from ChEMBL, ref F.J. Gamo et al., Nature 2010; cited from earlier work
HepG2 cells = conditions: cited from earlier work
DD2 [4] = system: DD2; design: method as in F.J. Gamo et al., Nature 2010; conditions: downloaded from ChEMBL, ref F.J. Gamo et al., Nature 2010; cited from earlier work
[5] = target: T3, Plasmodium falciparum calcium-dependent protein kinase 4 (CDPK4) (Plasmodium falciparum, UniProt Q8IBS5); test: CDPK4 Kinase-Glo ATP-consumption screen and dose-response; type: biochemical; conditions: hits below 1 uM
T3 construct: 6-Histidine (N); made in house
T3 sequence (Q8IBS5 1-528): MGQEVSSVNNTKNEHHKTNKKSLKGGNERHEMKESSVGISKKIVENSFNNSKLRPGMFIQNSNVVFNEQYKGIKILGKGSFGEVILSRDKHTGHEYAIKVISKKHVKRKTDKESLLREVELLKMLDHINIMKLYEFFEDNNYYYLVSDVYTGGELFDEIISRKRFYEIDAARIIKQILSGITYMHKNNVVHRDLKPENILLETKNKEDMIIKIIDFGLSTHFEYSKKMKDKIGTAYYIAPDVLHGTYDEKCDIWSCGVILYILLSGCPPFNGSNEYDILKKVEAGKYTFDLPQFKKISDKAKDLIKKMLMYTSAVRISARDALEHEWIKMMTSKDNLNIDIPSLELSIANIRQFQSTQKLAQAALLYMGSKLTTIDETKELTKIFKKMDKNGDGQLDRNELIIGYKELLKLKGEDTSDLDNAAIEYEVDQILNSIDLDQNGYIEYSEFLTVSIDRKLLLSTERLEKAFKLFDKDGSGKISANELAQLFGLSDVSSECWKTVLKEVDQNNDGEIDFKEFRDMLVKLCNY
Procedure: Biochemical assays were performed in white 384-well plates (Nunc). Liquid transfers were done manually with 8-channel pipets. Compounds were initially tested in a single-point screen (final concentration 1 μM). […] The catalytic activity of each kinase was considered proportional to ATP consumed, as determined from measurements of residual [ATP] with the luciferase-based reagent Kinase-Glo (Promega) following incubation. Luminescence (proportional to residual [ATP]) was measured on the plate readers FLx800 (BioTek Instruments, Winooski, VT, USA) and MicroBeta^2 (PerkinElmer, Waltham, MA, USA). Incubation times were chosen to ensure near-complete ATP depletion in the absence of inhibition, thus maximizing the difference in signal between inhibited and uninhibited wells.
40 μM Syntide-2 was used as a substrate; BKI-1 [14] was used as a control inhibitor, while reaction mixtures lacking Syntide-2 were included as an additional negative control. Incubation time was 90 minutes. Reactions were terminated by adding excess EGTA (5 mM), which sequesters Ca^2+ and halts calcium-dependent kinase activity.

DD2 [6] = system: DD2; design: method as in downloaded from ChEMBL; conditions: ref downloaded from ChEMBL; cited from earlier work
3D7 PFLDH [7] = system: 3D7 PFLDH; design: method as in downloaded from ChEMBL; conditions: ref downloaded from ChEMBL; cited from earlier work
3D7 PFLDH [8] = system: 3D7 PFLDH; design: method as in ChEMBL; conditions: ref ChEMBL; cited from earlier work
P. falciparum DD2 = system: P. falciparum DD2; design: method as in ChEMBL; conditions: ref ChEMBL; cited from earlier work
[9] = 3D7, downloaded from ChEMBL, ref F.J. Gamo et al., Nature 2010
[10] = HepG2, downloaded from ChEMBL, ref F.J. Gamo et al., Nature 2010
[11] = 3D7, ref downloaded from ChEMBL
[12] = HEPG2, ref downloaded from ChEMBL

T1 sequence (P62344 whole entry): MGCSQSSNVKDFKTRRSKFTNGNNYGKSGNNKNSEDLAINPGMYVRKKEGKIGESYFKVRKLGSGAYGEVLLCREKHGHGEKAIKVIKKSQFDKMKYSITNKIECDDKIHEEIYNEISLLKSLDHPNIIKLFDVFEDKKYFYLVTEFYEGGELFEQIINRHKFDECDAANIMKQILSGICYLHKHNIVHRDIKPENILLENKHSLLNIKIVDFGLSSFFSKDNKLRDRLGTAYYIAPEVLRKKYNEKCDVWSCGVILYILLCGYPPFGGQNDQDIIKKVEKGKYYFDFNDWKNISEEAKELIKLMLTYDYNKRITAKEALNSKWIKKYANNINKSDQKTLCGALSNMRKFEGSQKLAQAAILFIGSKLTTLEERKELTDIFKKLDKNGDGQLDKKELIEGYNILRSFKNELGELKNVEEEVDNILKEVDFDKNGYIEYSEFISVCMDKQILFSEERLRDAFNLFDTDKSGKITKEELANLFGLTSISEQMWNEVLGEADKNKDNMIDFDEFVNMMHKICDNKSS
PKG, sequence (Q8I719 whole entry): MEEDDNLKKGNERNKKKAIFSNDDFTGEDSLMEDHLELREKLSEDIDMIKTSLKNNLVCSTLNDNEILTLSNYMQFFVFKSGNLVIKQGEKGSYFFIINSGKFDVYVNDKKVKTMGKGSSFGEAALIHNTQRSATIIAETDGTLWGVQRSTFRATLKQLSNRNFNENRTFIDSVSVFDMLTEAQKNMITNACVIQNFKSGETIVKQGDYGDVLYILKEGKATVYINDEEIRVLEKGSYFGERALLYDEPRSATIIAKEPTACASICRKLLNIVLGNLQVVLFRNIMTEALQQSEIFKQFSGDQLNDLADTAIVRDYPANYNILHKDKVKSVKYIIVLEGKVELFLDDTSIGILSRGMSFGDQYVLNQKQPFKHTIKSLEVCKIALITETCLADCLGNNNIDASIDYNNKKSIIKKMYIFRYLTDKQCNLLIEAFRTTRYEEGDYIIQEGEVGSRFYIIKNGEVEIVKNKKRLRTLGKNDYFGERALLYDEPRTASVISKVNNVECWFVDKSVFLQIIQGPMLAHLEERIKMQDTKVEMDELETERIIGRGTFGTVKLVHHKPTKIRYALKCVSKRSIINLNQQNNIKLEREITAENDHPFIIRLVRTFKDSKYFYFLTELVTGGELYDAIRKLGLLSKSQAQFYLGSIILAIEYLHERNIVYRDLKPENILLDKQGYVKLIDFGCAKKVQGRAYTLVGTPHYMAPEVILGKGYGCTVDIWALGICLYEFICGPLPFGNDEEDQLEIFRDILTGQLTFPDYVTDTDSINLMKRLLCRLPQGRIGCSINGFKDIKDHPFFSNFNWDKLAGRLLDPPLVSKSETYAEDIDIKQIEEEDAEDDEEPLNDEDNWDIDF

SMILES | IC50 [1] [nM] | IC50 (PKG) [nM] | IC50 [2] [nM] | PCT_IHB_3D7 (P. falciparum 3D7 cells; [9]) [%] | pXC50_3D7 (P. falciparum 3D7 cells; [9]) | PCT_INHIB_3D7_PFLDH (3D7 PFLDH [3]) [%] | PCT_INHIB_HEPG2 (HepG2 cells; [10]) [%] | PCT_INHB_DD2 (DD2 [4]) [%] | IC50 [5] [nM] | PCT_INHB_DD2 (DD2 [6]) | PCT_IHB_3D7 (P. falciparum 3D7 cells; [11]) | pXC50_3D7 (P. falciparum 3D7 cells; [11]) | PCT_INHIB_HEPG2 (HepG2 cells; [12]) | PCT_INHIB_3D7_PFLDH (3D7 PFLDH [7]) | PCT_INHIB_3D7_PFLDH (3D7 PFLDH [8]) | PCT_IHB_3D7 (P. falciparum 3D7 cells; P. falciparum 3D7, ref ChEMBL) | pXC50_3D7 (P. falciparum 3D7 cells; P. falciparum 3D7, ref ChEMBL) | PCT_INHIB_HEPG2 (HepG2 cells; HepG2 cells, ref ChEMBL) | PCT_INHB_DD2 (P. falciparum DD2)
CNC(=O)c1ccccc1Nc1nc(Nc2ccc(CCN3CCN(C)CC3)cc2)ncc1Cl.Cl [TCMDC-133800] | 47 | 881 | 70 | 97 | 6.1864 | 5 | 76 | 98 | 361 |  |  |  |  |  |  |  |  |  | 
Cl.NC[C@H](CC1CCCCC1)NC(=O)c1ccc(-c2ccnc3[nH]ccc23)s1 [TCMDC-134150] | 492 | 1020 |  |  |  |  |  |  | 527 | 4 | 98 | 6.022 | 39 | 5 |  |  |  |  | 
NCC(NC(=O)c1ccc(-c2c[nH]c3ncccc23)s1)c1ccccc1.O=CO (centres unmarked) [TCMDC-134154] | 29 | 430 |  |  |  |  |  |  | 473 | 87 | 95 | 6.262 | 52 | 0 |  |  |  |  | 
CN(C(=O)c1cc2c(-c3cncnc3)cccc2[nH]1)c1ccccc1 [TCMDC-134637] | 271 |  |  |  |  |  |  |  |  |  |  |  |  |  | 0 | 92 | 6.202 | 1 | 99
CS(=O)(=O)Cc1ccc(Nc2nccc(-c3c(-c4cccc(NC(=O)c5c(F)cccc5F)c4)nn4ccccc34)n2)cc1 [TCMDC-135669] | 20 | > 10000 | 276 |  |  |  |  |  | 52 | 75 | 99 | 6.824 | 78 | 0 |  |  |  |  | 
CC(c1cccc(Nc2nccc(-c3c(-c4cccc(NC(=O)c5c(F)cccc5F)c4)nn4ccccc34)n2)c1)S(C)(=O)=O (centres unmarked) [TCMDC-135670] | 21 | > 10000 |  |  |  |  |  |  | 90 | 99 | 98 | 7.241 | 76 | 0 |  |  |  |  | 
O=C(Nc1c(F)cccc1F)c1cccc(-c2nn3ccccc3c2-c2ccnc(Nc3cccc(-c4cnco4)c3)n2)c1 [TCMDC-135743] | 40 | > 10000 |  |  |  |  |  |  | 134 | 94 | 95 | 6.443 | 96 | 0 |  |  |  |  | 
NS(=O)(=O)c1cccc(Nc2nccc(-c3c(-c4cccc(NC(=O)c5c(F)cccc5F)c4)nn4ccccc34)n2)c1 [TCMDC-135780] | 20 | > 10000 |  |  |  |  |  |  | 51 | 97 | 98 | 7.1329 | 81 | 2 |  |  |  |  | 
NS(=O)(=O)CCc1cccc(Nc2nccc(-c3c(-c4cccc(NC(=O)c5c(F)cccc5F)c4)nn4ccccc34)n2)c1 [TCMDC-135791] | 20 | > 10000 |  |  |  |  |  |  | 29 | 97 | 98 | 7.234 | 84 | 3 |  |  |  |  | 
CN1CCN(c2ccc(Nc3nccc(-c4c(-c5cccc(NC(=O)c6c(F)cccc6F)c5)nn5ccccc45)n3)cc2)CC1 [TCMDC-135818] | 35 | 115 |  |  |  |  |  |  | 75 | 98 | 98 | 6.95 | 86 | 0 |  |  |  |  | 
O=C(Nc1cccc(-c2nn3ccccc3c2-c2ccnc(Nc3ccc(-c4cc[nH]n4)cc3)n2)c1)c1c(F)cccc1F [TCMDC-135915] | 22 | > 10000 |  |  |  |  |  |  | 307 | 98 | 98 | 6.7232 | 68 | 5 |  |  |  |  | 
O=C(Nc1cccc(-c2nn3ccccc3c2-c2ccnc(Nc3ccc(NCCCN4CCOCC4)c(F)c3)n2)c1)c1c(F)cccc1F [TCMDC-135921] | 38 | 5460 | 580 |  |  |  |  |  | 315 | 97 | 100 | 6.586 | 86 | 0 |  |  |  |  | 
Cl.NCc1ccc(Nc2nccc(Nc3ccc(-c4ccccc4)cc3)n2)cc1 [TCMDC-136004] | 375 |  |  |  |  |  |  |  |  |  |  |  |  |  | 0 | 100 | 6.05 | 47 | 98
CCn1c(-c2nonc2N)nc2c(-c3cccc(NC(=O)NC45CC6CC(CC(C6)C4)C5)c3)ncc(OCCCN)c21.O=C(O)C(F)(F)F [TCMDC-136246] | 84 | 89 |  | 94 |  | 0 | 100 | 63 | 158 |  |  |  |  |  |  |  |  |  | 

— PMC4774911, “Biochemical Screening of Five Protein Kinases from Plasmodium falciparum against 14,000 Cell-Active Compounds” (PLoS ONE, 2016)
